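Compound exposure: 48 hours, 5 concentrations, 96-well plates. At the TGI there is no net growth.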
Key:
Assay in all cases: NCI tumour cell line growth inhibition, 48 h
[1] = system: 786-0 renal
[2] = system: A498 renal
[3] = system: A549 NSCLC
[4] = system: ACHN renal
[5] = system: CCRF-CEM leukemia
[6] = system: COLO 205 colon
[7] = system: DMS 114 small cell lung
[8] = system: DMS 273 small cell lung
[9] = system: EKVX NSCLC
[10] = system: HCC-2998 colon
[11] = system: HCT-116 colon
[12] = system: HCT-15 colon
[13] = system: HL-60(TB) leukemia
[14] = system: HOP-18 NSCLC
[15] = system: HOP-62 NSCLC
[16] = system: HOP-92 NSCLC
[17] = system: HT29 colon
[18] = system: IGROV1 ovarian
[19] = system: K-562 leukemia
[20] = system: KM12 colon
[21] = system: LOX IMVI melanoma
[22] = system: LXFL 529 NSCLC
[23] = system: M14 melanoma
[24] = system: M19-MEL melanoma
[25] = system: MALME-3M melanoma
[26] = system: MOLT-4 leukemia
[27] = system: NCI-H226 lung
[28] = system: NCI-H23 lung
[29] = system: NCI-H460 lung
[30] = system: NCI-H522 lung
[31] = system: OVCAR-3 ovarian
[32] = system: OVCAR-4 ovarian
[33] = system: OVCAR-5 ovarian
[34] = system: OVCAR-8 ovarian
[35] = system: RPMI-8226 leukemia
[36] = system: SF-268 CNS
[37] = system: SF-295 CNS
[38] = system: SF-539 CNS
[39] = system: SK-MEL-2 melanoma
[40] = system: SK-MEL-28 melanoma
[41] = system: SK-MEL-5 melanoma
[42] = system: SK-OV-3 ovarian
[43] = system: SN12C renal
[44] = system: SNB-19 CNS
[45] = system: SNB-75 CNS
[46] = system: SNB-78 CNS
[47] = system: SR leukemia
[48] = system: SW-620 colon
[49] = system: TK-10 renal
[50] = system: U251 CNS
[51] = system: UACC-257 melanoma
[52] = system: UACC-62 melanoma
[53] = system: UO-31 renal
[54] = system: BT-549 breast
[55] = system: CAKI-1 renal
[56] = system: DU-145 prostate
[57] = system: HS 578T breast
[58] = system: MCF7 breast
[59] = system: MDA-MB-231 breast
[60] = system: MDA-MB-435
[61] = system: MDA-N
[62] = system: NCI/ADR-RES ovarian
[63] = system: PC-3 prostate
[64] = system: RXF 393 renal
[65] = system: T-47D breast

COc1c(C(=O)O)oc2c(OC)cccc12
TGI [1]: > 100 µM | TGI [2]: > 100 µM | TGI [3]: > 100 µM | TGI [4]: > 100 µM | TGI [5]: > 100 µM | TGI [6]: > 100 µM | TGI [7]: > 100 µM | TGI [8]: > 100 µM | TGI [9]: > 100 µM | TGI [10]: > 100 µM | TGI [11]: > 100 µM | TGI [12]: > 100 µM | TGI [13]: > 100 µM | TGI [14]: > 100 µM | TGI [15]: > 100 µM | TGI [16]: > 100 µM | TGI [17]: > 100 µM | TGI [18]: > 100 µM | TGI [19]: > 100 µM | TGI [20]: > 100 µM | TGI [21]: > 100 µM | TGI [22]: > 100 µM | TGI [23]: > 100 µM | TGI [24]: > 100 µM | TGI [25]: > 100 µM | TGI [26]: > 100 µM | TGI [27]: > 100 µM | TGI [28]: > 100 µM | TGI [29]: > 100 µM | TGI [30]: > 100 µM | TGI [31]: > 100 µM | TGI [32]: > 100 µM | TGI [33]: > 100 µM | TGI [34]: > 100 µM | TGI [35]: > 100 µM | TGI [36]: > 100 µM | TGI [37]: > 100 µM | TGI [38]: > 100 µM | TGI [39]: > 100 µM | TGI [40]: > 100 µM | TGI [41]: > 100 µM | TGI [42]: > 100 µM | TGI [43]: > 100 µM | TGI [44]: > 100 µM | TGI [45]: > 100 µM | TGI [46]: > 100 µM | TGI [47]: > 100 µM | TGI [48]: > 100 µM | TGI [49]: > 100 µM | TGI [50]: > 100 µM | TGI [51]: > 100 µM | TGI [52]: > 100 µM | TGI [53]: > 100 µM

Cn1c(=O)c2c(nc3n(Cc4ccccc4)c(=O)c(NCCBr)cn23)n(C)c1=O
TGI [1]: 37 µM | TGI [2]: 91.1 µM | TGI [3]: > 100 µM | TGI [4]: 32.3 µM | TGI [54]: > 100 µM | TGI [55]: 37.6 µM | TGI [5]: > 100 µM | TGI [6]: > 100 µM | TGI [56]: > 100 µM | TGI [9]: 48.1 µM | TGI [10]: 52 µM | TGI [11]: 82 µM | TGI [12]: > 100 µM | TGI [13]: > 100 µM | TGI [15]: 43.2 µM | TGI [16]: 36.2 µM | TGI [57]: 76.6 µM | TGI [17]: > 100 µM | TGI [18]: > 100 µM | TGI [19]: > 100 µM | TGI [20]: > 100 µM | TGI [21]: > 100 µM | TGI [23]: > 100 µM | TGI [58]: > 100 µM | TGI [59]: 72.2 µM | TGI [60]: > 100 µM | TGI [61]: > 100 µM | TGI [26]: > 100 µM | TGI [27]: 63.1 µM | TGI [28]: > 100 µM | TGI [29]: > 100 µM | TGI [30]: 62.8 µM | TGI [62]: 60.2 µM | TGI [31]: 66.7 µM | TGI [32]: 49.2 µM | TGI [33]: > 100 µM | TGI [34]: 33.8 µM | TGI [63]: > 100 µM | TGI [35]: > 100 µM | TGI [64]: 35 µM | TGI [36]: > 100 µM | TGI [37]: 43.1 µM | TGI [39]: 74.2 µM | TGI [40]: > 100 µM | TGI [41]: > 100 µM | TGI [42]: 51.9 µM | TGI [43]: > 100 µM | TGI [44]: > 100 µM | TGI [45]: 49.8 µM | TGI [47]: 52.9 µM | TGI [48]: > 100 µM | TGI [65]: 52.9 µM | TGI [49]: 44.5 µM | TGI [50]: > 100 µM | TGI [51]: > 100 µM | TGI [52]: > 100 µM | TGI [53]: 36 µM

Reference: PubChem BioAssay (NCI)
